Literature values, collected in patent publication US20080057123A1, “Controlled Release Formulations” (Jagotec AG, priority 2006, published 2008).

## COC(=O)C1=C(C)NC(C)=C(C(=O)OCC(C)C)C1c1ccccc1[N+](=O)[O-] (centres unmarked) [Nisoldipine]
ethanol
  solubility in ethanol: soluble
water
  solubility in water: practically insoluble
